Test results published in US20090030037A1, “Sustained Release Formulation and Dosing Schedules of Leukotriene Synthesis Inhibitor for Human Therapy” (deCODE Genetics ehf., priority 2005, published 2009).
Where “and” joins values, the source holds several entries; their conditions need not be identical. Equal entries are not always repeated.

Legend:
LTB4 = assay: Study DG-031-201: ionomycin-induced LTB4 production in whole blood ex vivo; set-up: species or system human; details: for LTB4 production, percent change: Study 201
Procedure: Genet. 2004). Apart from FLAP, allele A of the SNP SG12S25 in the LTA4 hydrolase gene, another gene in the LT pathway, is also associated with MI, as described in PCT application no. PCT/US03/32556 and PCT/US04/30582 incorporated by reference.
(§1) Patients who met the study eligibility criteria were enrolled and randomized into 3 different dose-level groups: (1) 64 patients on 250 mg/day therapy with DG-031 (250 mg q.d.), vs placebo; (2) 64 patients on 500 mg/day therapy with DG-031 (250 mg b.i.d.) vs placebo; and (3) 63 patients on 750 mg/day therapy with DG-031 (250 mg t.i.d.) vs placebo. […] All patients received 3 tablets per day. Treatment periods, 4 weeks in duration each, were separated by a 2-week washout period. The placebo tablets were identical in shape, color, form and taste to the active tablets except that they contained no active drug ingredients. Treatment with DG-031 or placebo was in addition to the subject's standard care, including all medications and treatment plan as prescribed by the subject's cardiologist prior to enrolment. A total of 191 subjects were enrolled, with 172 completing all 8 visits or 8 patients short of the target of 180 patients.
The primary objective was to determine whether the FLAP inhibitor has a statistically significant effect, compared to placebo, on one or more biomarkers of MI risk, including: (1) ionomycin-induced LTB4 and MPO release by neutrophils ex vivo; (2) MPO, CRP, N-tyrosine, Lp-PLA2 or amyloid A in serum, or (3) LTE4 in urine. The secondary objective was to determine whether the effect of DG-031 was dose-dependent. The tertiary objective was to assess other biomarkers (See Results). Evaluation of safety and tolerability of the drug was also a primary endpoint.
All data were analyzed according to a pre-established statistical analysis plan (SAP) and by intention-to-treat (ITT). Each arm of the study, as well as pooled sets (combining dose levels), was considered for the primary analysis. Each such set is an AB/BA cross-over design and in the primary analysis of efficacy, the levels of biomarkers of MI risk at the end of the treatment periods (visits 4 and 7) were used as primary response variables. The difference between DG-031 and placebo treatment was the primary outcome, assessed separately for each of the biomarkers. Treatment effect was tested using a two-sample t-test on the period differences for suitably transformed response variables, under an assumption of normality of the transformed data. We report treatment effect as one half of the observed mean differences in the two-sample t-test, with a 95% CI. No pre-tests for carry-over effect were performed as a part of the primary analysis. Tests for carry-over were done and are reported separately from results of primary analysis. All hypotheses were tested at a two-sided nominal significance level of 0.05 and p-values based on t-tests are reported. In addition, for the primary efficacy endpoints where the effects of the two highest doses on 10 primary variables were studied, a randomization test was performed which corrects for multiple testing and ensures that the key results are not affected by distributional concerns. In particular, 1 million permutations of the patients into the different study tracks were performed, generating a reference distribution for the maximum of the 10 t-statistics of the biomarkers under the null hypothesis of no drug effect. […]

White blood cell count = assay: Study DG-031-201: white blood cell count; assay type: in vivo, human; details: difference visit 2 to 5; 500 and 750 mg/day vs placebo
Procedure: as §1
All data were analyzed according to a pre-established statistical analysis plan (SAP) and by intention-to-treat (ITT). Each arm of the study, as well as pooled sets (combining dose levels), was considered for the primary analysis. […] The difference between DG-031 and placebo treatment was the primary outcome, assessed separately for each of the biomarkers. […]

O=C(O)[C@@H](c1ccc(OCc2ccc3ccccc3n2)cc1)C1CCCC1 [DG-031, (R)-(+)-alpha-cyclopentyl-4-(2-quinolinylmethoxy)-Benzeneacetic acid]
LTB4 production, percent change (LTB4; 250 mg BID): −18% | LTB4 production, percent change (LTB4; 250 mg QD): −13% | LTB4 production, percent change (LTB4; 250 mg TID): −34% (St. 201) and −34% (−201) | Reduction of capacity for LTB4 production (LTB4; 250 mg TID, at steady state Cmin): 30% | Carry-over effect, LTB4 in whole blood, corr. for wbc (LTB4; difference visit 2 to 5, 500 and 750 mg/day vs placebo): −0.10 | Carry-over effect, White blood cell count (White blood cell count): −0.01
